{"source": "patent US20230310432A1", "about": "(JULIUS-MAXIMILIANS-UNIVERSITÄT WÜRZBURG, priority 2017, published 2023)", "key": {"[1]": {"test_system": "PD-1 on CD19 CAR/4-1BB T cells", "assay": "Surface expression of PD-1 on human CAR-T cells by flow cytometry, intermittent dasatinib", "assay_type": "in vivo, NSG mice", "conditions": "intermittently treated (CAR/+)", "procedure": "In brief, cohorts of 1-12 mice were inoculated with 1×10^6 firefly-luciferase_GFP-transduced Raji tumor cells on day 0. […] Serial bioluminescence imaging was performed to determine tumor burden on day 7, 9 and 15.\nBased on the mouse model introduced in Example 11 (FIG. 21A), the inventors analyzed the surface expression of PD-1 on human CAR-T cells in bone marrow (BM), peripheral blood (PB) and spleen (SP) by flow cytometry."}, "CD19 CAR/4-1BB-T cells": {"test_system": "CD19 CAR/4-1BB-T cells", "assay": "Frequency of human T cells in bone marrow and peripheral blood by flow cytometry (Example 6)", "assay_type": "in vivo, NSG mice", "conditions": "CAR/treated", "procedure": "The Institutional Animal Care and Use Committee of UKW approved all mouse experiments. NOD.Cg-Prkdc^scidIl2rg^tm1wjl/SzJ (NSG) mice (female, 6-8 week old) were purchased from Charles River (Sulzfeld, Germany). Mice were inoculated with 1×10^6 Raji/ffluc_GFP tumor cells via tail vein injection (i.v.). Mice were treated with 5×10^6 CAR-modified or control untransduced T-cells (CD4:CD8 ratio=1:1) via tail vein injection (i.v.). […] Tumor burden and distribution was analyzed by serial bioluminescence imaging on an IVIS Lumina imager (Perkin Elmer, Baesweiler, Germany): mice received i.p. injections of 0.3 mg/g luciferin and images were acquired 10 minutes after luciferin injection in small binning mode at an acquisition time of 1 s to 1 min to obtain unsaturated images. Data were analyzed using LivingImage Software (Caliper) and the average radiance (or photon flux) analyzed in regions of interest that encompassed the entire body of each individual mouse. Mice were sacrificed at the end of the experiment and human T cells in bone marrow, peripheral blood and spleen were analyzed by flow cytometry. The presence of (human) cytokines in serum was measured using multiplex cytokine analysis.\nIn brief, cohorts of n≥3 mice were inoculated with 1×10^6 firefly-luciferase_GFP-transduced Raji tumor cells on day 0, and on day 7 mice were treated with either CAR-transduced or control untransduced T cells. T-cell products consisted of equal proportions of CD4^+ and CD8^+ T cells (1:1 ratio), the total dose was 5×10^6 T cells.\nThe inventors analyzed the presence of human T cells in bone marrow (BM), spleen (SP) and peripheral blood (PB) of mice, at d1 and d3 after T cell injection using flow cytometry. Live human T cells were identified as 7AAD^−, […] and CD4^+."}, "[2]": {"test_system": "activated CD19 CAR/4-1BB-T cells", "assay_type": "in vivo, NSG mice"}, "[3]": {"test_system": "CD8+ T cells expressing a CD19 CAR with 4-1BB costimulation", "assay": "CFSE proliferation assay, co-culture with K562/CD19", "assay_type": "cell-based, human", "conditions": "72 h"}, "[4]": {"test_system": "CD8+ T cells expressing a ROR1 CAR with 4-1BB costimulatory domain", "assay": "Cytokine production and secretion (IFN-γ, IL-2 ELISA), co-culture with K562/ROR1", "assay_type": "cell-based, human", "conditions": "dasatinib ≥50 nM; 20 h", "procedure": "Cytokine secretion: 5×10^4 T-cells were plated in duplicate or triplicate wells with target cells at an E:T ratio of 4:1 (K562/ROR1, K562/CD19, RCH-ACV), and IFN-γ and IL-2 were measured by ELISA, or cytokine panels were measured by multiplex cytokine immunoassay (Luminex) in supernatant removed after 20-h incubation. Specific cytokine production was calculated by subtracting the amount of cytokines released by unstimulated CAR-T cells from the amount of cytokines released after antigen-specific stimulation. The remaining cytokine secretion in % as shown in the diagrams is normalized to CAR-T cells in the absence of dasatinib-treatment (100%).\nCAR-T cells were co-cultured with K562 that the inventors had transduced with either CD19 (for testing CD19 CAR-T cells) or ROR1 (for testing ROR1 CAR-T cells). Dasatinib was added to the assay medium at the beginning of the co-culture assay. ELISA was performed to detect IFN-γ and IL-2 in supernatant removed from the co-culture."}, "[5]": {"test_system": "NFAT-inducible GFP reporter gene in CD8+ CD19 CAR/4-1BB T cells", "assay": "NFAT-inducible GFP reporter assay", "assay_type": "cell-based, human", "conditions": "100 nM dasatinib; stimulation with Raji, 24 h; 1211 without dasatinib, 117 unstimulated", "procedure": "T cells (co-)expressing the NFAT inducible GFPwt reporter gene were co-cultured in the presence of 10 U IL-2 with irradiated (80 Gy) Raji or K562 tumor cells at an E:T ratio of 5:1 or without target cells. […] After 24 hours of co-culture, cells were labeled with anti-CD3 mAb, and analyzed by flow cytometry to assess GFP expression in T cells.\nThe inventors prepared CD8^+ CD19 CAR/4-1BB T cells, that the inventors transduced to co-express an NFAT-inducible GFP reporter gene."}, "[6]": {"test_system": "CD8+ T cells expressing a SLAMF7 CAR with CD28 costimulatory domain", "assay": "Bioluminescence-based cytotoxicity assay, K562/SLAMF7 target cells", "assay_type": "cell-based, human"}, "[7]": {"test_system": "CD4+ T cells expressing a CD19 CAR with CD28 costimulatory domain", "assay": "Multiplex cytokine analysis, co-culture with K562/CD19", "assay_type": "cell-based, human", "conditions": "dasatinib ≥25 nM; 20 h; compared to non-dasatinib treated CAR-T cells", "description": "A multiplex cytokine analysis was performed in supernatant removed from the co-culture."}, "[8]": {"test_system": "CAR-T cells co-expressing the iCasp suicide gene", "assay": "Elimination of iCasp+ T cells", "assay_type": "cell-based, human", "conditions": "100 nM dasatinib and dimerizer (dasatinib+/dimerizer+); 24 hours", "procedure": "After 24 hours, cells were labeled with anti-CD3 mAB and analyzed by flow cytometry for the presence of iCasp+ T cells.\nAfter 24 hours, cells were labeled with anti-CD3 mAB and analyzed by flow cytometry for the presence of iCasp^+ T cells."}, "[9]": {"test_system": "CD8+ T cells expressing a CD19 CAR with 4-1BB costimulation", "assay": "Bioluminescence-based cytotoxicity assay, K562/CD19 target cells", "assay_type": "cell-based, human", "conditions": "dasatinib 100 nM added 1 hour after the start of the co-culture; t=10 hours; >90% without dasatinib"}, "[10]": {"test_system": "CD8+ T cells expressing a CD19 CAR with 4-1BB costimulation", "assay": "Cytokine production and secretion (IFN-γ, IL-2 ELISA), co-culture with K562/CD19", "assay_type": "cell-based, human", "conditions": "20 h"}, "[11]": {"conditions": "dasatinib 100 nM added 2 hours after the start of the co-culture"}}, "note": "Like-named read-outs stand apart in the source and are kept apart here."}
{"compound": "Cc1nc(Nc2ncc(C(=O)Nc3c(C)cccc3Cl)s2)cc(N2CCN(CCO)CC2)n1", "note": "[dasatinib]", "values": [{"measurement": "PD-1 mean fluorescence intensity (MFI) on CAR-T cells, peripheral blood", "setting": "[1]; 4110 not exposed", "result": 2775}, {"measurement": "PD-1 mean fluorescence intensity (MFI) on CAR-T cells, spleen", "setting": "[1]; 4318 not exposed", "result": 23652}, {"measurement": "PD-1 mean fluorescence intensity (MFI) on CAR-T cells, bone marrow", "setting": "[1]; 9461 not exposed", "result": 7025}, {"measurement": "frequency of human T cells, bone marrow", "setting": "CD19 CAR/4-1BB-T cells; day 1, 0.099% CAR/untreated", "result": 0.087, "unit": "%"}, {"measurement": "frequency of human T cells, peripheral blood", "setting": "CD19 CAR/4-1BB-T cells; day 1, […] CAR/untreated", "result": 0.19, "unit": "%"}, {"measurement": "frequency of CAR-T cells, bone marrow", "setting": "CD19 CAR/4-1BB-T cells; day +3, 0.56% CAR/untreated", "result": 0.23, "unit": "%"}, {"measurement": "frequency of CAR-T cells, peripheral blood", "setting": "CD19 CAR/4-1BB-T cells; day +3, 0.61% CAR/untreated", "result": 0.36, "unit": "%"}, {"measurement": "serum level of IFN-γ", "setting": "[2]; day 12, CAR(ON/OFF/ON), 157 pg/ml in CAR(ON)", "result": 24, "unit": "pg/mL"}, {"measurement": "serum level of IFN-γ", "setting": "[2]; day 14, dasatinib discontinued", "result": 38, "unit": "pg/mL"}, {"measurement": "remaining proliferation", "setting": "[3]; 0.1 μM dasatinib", "result": "< 5.6", "unit": "%"}, {"measurement": "residual proliferation compared to non-dasatinib treated CAR-T cells", "setting": "[3]; dasatinib ≥3.125 nM", "result": "less than 80%"}, {"measurement": "residual proliferation compared to non-dasatinib treated CAR-T cells", "setting": "[3]; dasatinib ≥12.5 nM", "result": "less than 45%"}, {"measurement": "residual proliferation compared to non-dasatinib treated CAR-T cells", "setting": "[3]; dasatinib ≥50 nM", "result": "less than 8%"}, {"measurement": "residual IFN-γ production compared to non-dasatinib treated CAR-T cells", "setting": "[4]", "result": "less than 3%"}, {"measurement": "residual IL-2 production compared to non-dasatinib treated CAR-T cells", "setting": "[4]", "result": "less than 8.5%"}, {"measurement": "mean fluorescence intensity (MFI) of GFP expression", "setting": "[5]", "result": 129}, {"measurement": "specific lysis of target cells", "setting": "[6]; dasatinib 20, 40 and 60 nM, t=6 h, 67% by non-dasatinib treated", "result": "less than 21%"}, {"measurement": "residual specific lysis of target cells", "setting": "[6]; dasatinib 20, 40 and 60 nM, t=12 h, 85% by non-dasatinib treated", "result": "less than 35%"}, {"measurement": "specific lysis of target cells", "setting": "[6]; dasatinib ≥80 nM, any given time point, 85% by non-dasatinib treated at t=12 h", "result": "less than 3%"}, {"measurement": "reduction of production and secretion of GM-CSF, IFN-γ, IL-2, IL-4, IL-5, IL-6, IL-8", "setting": "[7]", "result": "> 95", "unit": "%"}, {"measurement": "percentage of iCasp+ cells", "setting": "[8]", "result": 36, "unit": "%"}, {"measurement": "specific lysis", "setting": "[9]", "result": 34, "unit": "%"}, {"measurement": "residual IFN-γ production (untreated CAR-T cells=100%)", "setting": "[10]; [11]", "result": 51, "unit": "%"}, {"measurement": "residual IL-2 production (untreated CAR-T cells=100%)", "setting": "[10]; [11]", "result": 28, "unit": "%"}, {"measurement": "residual specific IFN-γ production compared to non-dasatinib treated CAR-T cells", "setting": "[10]; dasatinib ≥6.25 nM", "result": "less than 45%"}, {"measurement": "residual specific IL-2 production compared to non-dasatinib treated CAR-T cells", "setting": "[10]; dasatinib ≥6.25 nM", "result": "less than 60%"}, {"measurement": "residual specific IL-2 production compared to non-dasatinib treated CAR-T cells", "setting": "[10]; dasatinib ≥50 nM", "result": "less than 1%"}]}
